Test results from paper PMC9147192, “Small Molecule Arranged Thermal Proximity Coaggregation (smarTPCA)—A Novel Approach to Characterize Protein–Protein Interactions in Living Cells by Similar Isothermal Dose–Responses” (International Journal of Molecular Sciences, 2022).
Several values for one entry are separate records, joined by “and”; a condition that tells them apart may be missing. Equal entries are not always repeated. Where two headings read alike, the source gives them in different places.

Key:
HN1L = target: T1, HN1L (Homo sapiens, UniProt Q9H910); experiment: TPP-CCR in living HL-60 cells; conditions: for Hill slope (HN1L): living HL-60 cells, […] °C, TMT-MS
T1 sequence (Q9H910 1-190): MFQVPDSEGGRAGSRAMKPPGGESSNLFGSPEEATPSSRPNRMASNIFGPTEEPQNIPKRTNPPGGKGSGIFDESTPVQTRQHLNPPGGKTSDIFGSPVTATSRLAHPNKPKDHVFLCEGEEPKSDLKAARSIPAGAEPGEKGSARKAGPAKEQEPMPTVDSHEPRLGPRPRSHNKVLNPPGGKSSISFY

MAPKAPK3 = MAPKAPK3 (Homo sapiens, UniProt Q16644); experiment: CETSA in living HL-60 cells, immunoblot; assay type: cell-based
Procedure: (§1) First, we conducted CETSA experiments according to Jafari et al.. […] Subsequent SDS-PAGE and immunoblotting were performed according to optimized conditions allowing for parallel detection of MAPK14, MAPKAPK2, MAPKAPK3, and GSK-3α (Supplementary Figure S1).
(§2) HL-60 cells (ATCC No. CCL-240) were expanded to about […] in 80 mL cell culture medium (RPMI-1640 supplemented with 10% (v/v) FBS, 1% (v/v) penicillin-streptomycin and 1% (v/v) L-glutamine solution) and divided into four aliquots (20 mL each, 25 million cells per flask). […] The same volume of DMSO was added to the remaining aliquot serving as the vehicle (DMSO) control. After incubation (1 h, 37 °C, 5% CO2, in cell culture CO2 incubator), the cell suspensions were transferred into 50 mL conical tubes, cell number and viability were determined, and after centrifugation (300 relative centrifugal force (rcf), 3 min, room temperature (r.t.)), the supernatants were completely removed and discarded. The cells were washed using 20 mL Dulbecco’s phosphate-buffered saline (PBS), respectively, by resuspension and centrifugation (300 rcf, 3 min, r.t.). After the complete removal of the supernatants, the cells were transferred into pre-weighed 2 mL Eppendorf tubes using 0.5 mL PBS (r.t.), respectively, for resuspending. After centrifugation (300 rcf, 3 min, r.t.) and removing as much as possible of the supernatants, the cell wet weights were determined.
(§3) The suspensions were shortly centrifuged (1 s or less) using a benchtop centrifuge that was equipped with an inset for PCR tubes to release trapped air and to achieve an even liquid level without pelleting the cells. The 100 µL cell suspensions were then temperature treated by a 7 min pre-incubation at r.t., a 3 min incubation at the following different temperatures in the PCR cycler (DNA Engine Tetrad 2, lid temperature 70 °C, gradient block 1: 36–55 °C, gradient block 2: 48–67 °C), and a 3 min post-incubation at r.t. in a metal heating block for uniform heat dissipation.
(§4) The cells were lysed by four freeze/thaw cycles consisting of thawing the samples (in a heat block set to 25 °C and shaking at 1250 rpm) accompanied by mixing them several times by inversion and then shock freezing them again in liquid nitrogen. The resulting lysates were kept cold (on ice or 4 °C) from then on. After centrifugation (20,000 rcf, 30 min, 4 °C) to pellet the cell debris together with precipitated and aggregated proteins, the supernatants were recovered and, after determining the total protein concentration (Pierce 660 nm Protein Assay, BSA as standard), the resulting cell extracts containing the fraction of soluble, non-denatured proteins were shock frozen in liquid nitrogen and stored at −80 °C.
(§5) For each sample set comprising either ten temperature range samples or ten compound concentration range samples, the same volume of the cell extracts containing the fraction of soluble, non-denatured proteins was used for further analysis. This volume was determined using the two lowest temperature samples (36.5 and 41.2 °C) per temperature range sample set so that they contained an average of 5 µg total protein (e.g., 2.78 µL for all temperature range samples of a sample set whose two lowest temperature samples contain an average of 1.8 mg/mL protein). For the compound concentration range experiments, all samples of a set were used for averaging.

GSK-3α = target: T2, GSK-3α (Homo sapiens, UniProt P49840); experiment: CETSA in living HL-60 cells, immunoblot; assay type: cell-based
T2 construct: parallel detection of MAPK14, MAPKAPK2, MAPKAPK3, and GSK-3α; endogenous in cells; host or cells: HL-60 (ATCC CCL-240), living cells or cell extract
Procedure: as §1, §2, §3, §4, §5

MAPKAPK2 = MAPKAPK2 (Homo sapiens, UniProt P49137); experiment: CETSA in living HL-60 cells, immunoblot; assay type: cell-based; conditions: for Top: top plateau of melting curve fit
Procedure: as §1, §2, §3, §4, §5

MAPK14 = tested on: MAPK14; design: method as in Jafari et al., Nat. Protoc. 2014; conditions: MAPK14, living HL-60 cells, ref Jafari et al., Nat. Protoc. 2014, cited from earlier work
MAPKAPK2 phosphorylation = experiment: MAPKAPK2 phosphorylation-dependent electrophoretic mobility shift (PDEMS) immunoblot, living HL-60 cells; conditions: 20 µM inhibitor
MAPK8 = MAPK8 (Homo sapiens, UniProt P45983); experiment: TPP-CCR in living HL-60 cells; conditions: […] °C, TMT-MS
[1] = GSK-3α, living cells, immunoblot
[2] = living HL-60 cells, 20 µM inhibitor, immunoblot
[3] = MAPKAPK3, living cells, immunoblot
[4] = living HL-60 cells, 20 µM inhibitor, immunoblot, 20 µM
[5] = living HL-60 cells, 20 µM inhibitor, immunoblot, read-out: ΔTm to DMSO (GSK-3α)
[6] = MAPKAPK2, living cells, immunoblot

T2 sequence (P49840 whole entry): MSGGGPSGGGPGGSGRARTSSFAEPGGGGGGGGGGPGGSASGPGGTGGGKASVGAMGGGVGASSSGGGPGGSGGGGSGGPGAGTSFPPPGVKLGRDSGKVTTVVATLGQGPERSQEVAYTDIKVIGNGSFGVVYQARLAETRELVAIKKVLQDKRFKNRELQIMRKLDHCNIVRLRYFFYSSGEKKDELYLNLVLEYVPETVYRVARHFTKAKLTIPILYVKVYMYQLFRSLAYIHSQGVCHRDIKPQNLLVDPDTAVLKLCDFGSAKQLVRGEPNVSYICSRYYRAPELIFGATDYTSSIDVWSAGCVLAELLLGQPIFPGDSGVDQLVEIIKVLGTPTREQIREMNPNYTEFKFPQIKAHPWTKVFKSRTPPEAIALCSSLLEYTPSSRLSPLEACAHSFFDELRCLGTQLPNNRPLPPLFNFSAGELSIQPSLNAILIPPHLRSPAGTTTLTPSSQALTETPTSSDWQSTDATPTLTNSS
Sequence of MAPKAPK3 (Q16644 whole entry): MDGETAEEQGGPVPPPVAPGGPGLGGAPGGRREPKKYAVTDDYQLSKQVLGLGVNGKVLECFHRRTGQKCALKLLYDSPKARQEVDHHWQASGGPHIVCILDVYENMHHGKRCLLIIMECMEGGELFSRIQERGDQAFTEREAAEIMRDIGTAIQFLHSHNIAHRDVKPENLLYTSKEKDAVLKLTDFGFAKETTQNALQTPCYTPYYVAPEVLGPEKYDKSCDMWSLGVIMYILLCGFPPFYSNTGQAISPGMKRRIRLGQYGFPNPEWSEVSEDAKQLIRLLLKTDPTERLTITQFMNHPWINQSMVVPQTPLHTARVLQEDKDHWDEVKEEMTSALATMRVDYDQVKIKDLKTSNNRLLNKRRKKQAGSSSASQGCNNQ
Sequence of MAPKAPK2 (P49137 whole entry): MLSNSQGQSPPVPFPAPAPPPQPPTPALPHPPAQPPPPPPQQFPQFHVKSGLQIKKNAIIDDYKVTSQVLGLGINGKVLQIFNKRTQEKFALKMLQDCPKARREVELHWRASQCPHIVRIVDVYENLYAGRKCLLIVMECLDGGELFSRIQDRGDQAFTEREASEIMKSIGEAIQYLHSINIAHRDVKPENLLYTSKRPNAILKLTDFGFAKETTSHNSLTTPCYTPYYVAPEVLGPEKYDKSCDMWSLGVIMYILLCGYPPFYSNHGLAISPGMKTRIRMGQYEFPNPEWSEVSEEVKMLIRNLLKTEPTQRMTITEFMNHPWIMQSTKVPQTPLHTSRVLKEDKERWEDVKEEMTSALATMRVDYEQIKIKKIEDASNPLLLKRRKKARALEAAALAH
Sequence of MAPK8 (P45983 whole entry): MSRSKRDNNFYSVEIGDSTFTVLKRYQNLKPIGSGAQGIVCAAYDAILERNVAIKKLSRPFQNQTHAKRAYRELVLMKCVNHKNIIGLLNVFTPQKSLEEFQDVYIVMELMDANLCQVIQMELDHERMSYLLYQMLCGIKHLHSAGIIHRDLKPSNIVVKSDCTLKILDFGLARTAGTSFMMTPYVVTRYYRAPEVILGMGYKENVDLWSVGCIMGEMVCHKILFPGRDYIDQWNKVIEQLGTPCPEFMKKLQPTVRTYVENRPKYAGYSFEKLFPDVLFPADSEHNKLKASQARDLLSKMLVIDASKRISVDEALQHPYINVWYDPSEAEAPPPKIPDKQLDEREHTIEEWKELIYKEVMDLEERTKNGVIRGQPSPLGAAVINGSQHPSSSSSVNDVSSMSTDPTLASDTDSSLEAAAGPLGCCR

| SMILES | EC50 (HN1L) | Hill slope (HN1L) (HN1L) | Tm (GSK-3α; [1]) | Tm (GSK-3α) (GSK-3α; [2]) | Top (MAPKAPK2; MAPKAPK2, living cells) | Tagg values (given as averages ± s.d.), AlphaScreen (MAPK14) | Tagg values (given as averages ± s.d.), Western blot (MAPK14) | MAPKAPK2 phosphorylation (band pattern, PDEMS) (MAPKAPK2 phosphorylation) | Hill slope (MAPK8) (MAPK8) | Tm (MAPKAPK3; [3]) | Tm (MAPKAPK3) (MAPKAPK3; [2]) | ΔTm at 20 µM (GSK-3α; [5]) | other results |
| --- | --- | --- | --- | --- | --- | --- | --- | --- | --- | --- | --- | --- | --- |
| Cc1cnc(Nc2ccc(F)cc2Cl)nc1-c1c[nH]c(C(=O)N[C@H](CO)c2cccc(Cl)c2)c1 [ERK 11e] | 110 nM | 0.20 | 54.11 °C | 54.11 °C | 36.1% | no substantial response (same as DMSO) | no substantial response (same as DMSO) | double band |  |  |  |  | Hill slope (HN1L; TPP-CCR, living cells, HN1L): 0.20; ΔTm at 20 µM (MAPKAPK3; HL-60, read-out: ΔTm to DMSO (MAPKAPK3)): 0.26 °C; ΔTm at 20 µM (GSK-3α; HL-60, read-out: ΔTm to DMSO (GSK-3α)): 0.14 °C; ΔTm at 20 µM (MAPKAPK2; HL-60, read-out: ΔTm to DMSO (MAPKAPK2)): -0.02 °C |
| Cn1c(NC[C@@H](N)Cc2ccccc2)nc(-c2ccncc2)c(-c2ccc3ccccc3c2)c1=O [AMG-548] | 389 nM | 0.39 | 53.26 °C | 53.26 °C |  | 59.2 ± 0.9 °C | 60.6 ± 1.0 °C | inhibited apparent MAPKAPK2 phosphorylation | 0.24 | 54.68 °C | 54.68 °C | -0.71 °C | ΔTm to DMSO (MAPKAPK3; [3]): 6.62 °C; ΔTm to DMSO (MAPKAPK3) (MAPKAPK3; [4]): 6.6 °C and 6.62 °C; Tm (MAPKAPK2; [6]): 54.39 °C; ΔTm to DMSO (MAPKAPK2; [6]): 5.18 °C; Tm (MAPKAPK2) (MAPKAPK2; [2]): 54.39 °C; ΔTm to DMSO (MAPKAPK2) (MAPKAPK2; [4]): 5.2 °C and 5.18 °C |
| C[S+]([O-])c1ccc(-c2nc(-c3ccncc3)c(-c3ccc(F)cc3)[nH]2)cc1 (centres unmarked) [SB203580] |  |  | 54.03 °C | 54.03 °C | 87.0% |  |  | inhibited apparent MAPKAPK2 phosphorylation | 0.44 | 51.56 °C | 51.56 °C | 0.05 °C | ΔTm to DMSO (GSK-3α; [1]): 0.0529 °C |
